{
  "source": "patent US4232035A",
  "about": "“Carbamate pesticidal compounds compositions and methods of use” (priority 1975, dated 1980)",
  "key": {"[1]": {"tested_on": "house flies (Musca domestica, L.)", "assay": "Fly Bait Test", "assay_type": "in vivo", "design": "key: A: excellent control; B: partial control; C: no control", "conditions": "500 parts per million bait in sugar solution; twenty four hours", "procedure": "(§1) Suspensions of the test compounds were prepared by dissolving one gram of compound in 50 milliliters of acetone in which had been dissolved 0.1 gram (10 percent of the weight of compound) of an alkylphenoxy polyethoxyethanol surfactant, as an emulsifying or dispersing agent. The resulting solution was mixed into 150 milliliters of water to give roughly 200 milliliters of a suspension containing the compound in finely divided form. The thus-prepared stock suspension contained 0.5 percent by weight of compound. The test concentrations in parts per million by weight employed in the tests described hereinbelow were obtained by appropriate dilutions of the stock suspension with water. The test procedures were as follows:\nFour to six day old adult house flies (Musca domestica, L.) reared according to the specifications of the Chemical Specialties Manufacturing Association (Blue Book, McNair-Dorland Co., N.Y. 1954; pages 243-244, 261) under controlled conditions of 80°±5° F. and 50±5 percent relative humidity, were the test insects. The flies were immobilized by anesthetizing with carbon dioxide and twenty five immobilized individuals, males and females, were transferred to a cage consisting of a standard food strainer about five inches in diameter which was inverted over a wrapping-paper-covered surface. The test compounds were formulated by diluting the stock suspension with a 10 percent (by weight) sugar solution to give a suspension containing 500 parts of test compound per million parts of final formulation, by weight. Ten milliliters of the test formulation were added to a souffle cup containing a one-inch square of an absorbent cotton pad. This bait cup was introduced and centered on the blotting paper under the food strainer prior to admitting the anesthetized flies. The caged flies were allowed to feed on the bait for twenty four hours, at a temperature of 80°±5° F. and the relative humidity of 50±5 percent."}, "[2]": {"tested_on": "root-knot nematode (Meloidogyne incognita var. acrita)", "assay": "Nematode Test", "assay_type": "in vivo", "design": "key: 1: severe galling; equal to untreated control; 2: moderate galling; 3: light galling; 4: very light galling; 5: no galling", "conditions": "10 ml of 500 parts per million formulation per jar of soil; cucumber indicator crop, approximately three weeks", "procedure": "as §1\nInfective migratory larvae of the root-knot nematode, (Meloidogyne incognita var. acrita) were reared in the greenhouse on roots of Rutgers variety tomato plant. Infected tomato plants were removed from the culture and the roots were chopped very finely. A small amount of inoculum from the roots was added to pint Mason jars containing approximately 180 cc of soil. The jars containing the inoculum and soil were capped and incubated for one week at room temperature. During this period eggs of the nematode hatched and the larvae forms migrated into the soil.\nThe test compounds were formulated by diluting the stock suspension with water to give a suspension containing 500 parts of test compound per million parts of final formulation. 10 milliliters of the test formulation was added to each of two jars for each dosage treated. As a control 10 milliliters of a water-acetone-emulsifier solution containing no test compound was also added to jars containing nematode larvae. The jars were capped and the contents thoroughly mixed on a kale mill for five minutes. The jars remained capped at room temperature for a period of 48 hours and the contents were then transferred to 3 inch pots. Subsequently, the pots were seeded to cucumber as an indicator crop and placed in the green house where they were cared for in the normal fashion for growing potted cucumber for approximately three weeks. These cucumber plants were then removed from the pots, the soil washed from the roots and the amount of galling visually rated."}},
  "data": [
    {"smiles": "CN(SSC(C)(C)C)C(=O)ON=C1SC(C)(C)C(=O)N1C", "values": [
      {"measurement": "H. Fly, pesticidal activity rating", "setting": "[1]", "value": "A"},
      {"measurement": "Nematodes, nematocidal toxicity rating (galling)", "setting": "[2]", "value": 1}
    ]},
    {"smiles": "CN(SSC(C)(C)C)C(=O)ON=C1SCCS1", "values": [
      {"measurement": "H. Fly, pesticidal activity rating", "setting": "[1]", "value": "A"},
      {"measurement": "Nematodes, nematocidal toxicity rating (galling)", "setting": "[2]", "value": 5}
    ]}
  ]
}
